Measured values reported in patent publication US20250332173A1, “COMPOUNDS AND METHODS FOR MODULATING NUCLEIC ACID SPLICING” (REMIX THERAPEUTICS INC., priority 2021, published 2025).
Like-named read-outs stand apart in the source and are kept apart here.

How the values were obtained:
[1] = system: MYB; assay: HiBiT protein abundance assay, MYB HiBiT K562 cell line; type: cell-based, human; details: 24 hours, top dose 10 μM
Procedure, shortened: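 Endogenous targets in K562 knock-in lines carried a HiBiT tag and were treated for 24 h at 37 °C with 10-point 3-fold dilutions (top 10 μM final, DMSO ≤0.25%). Abundance was read as lytic Nano-Glo HiBiT luminescence. IC50 came from a four-parameter logistic fit of normalized response.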

[2] = system: HTT mRNA; assay: RT-qPCR splicing assay, HTT canonical junction (CJ) and alternative junction (AJ) mRNA; type: cell-based, human; details: Homo sapiens; for AC50: increase in HTT alternative junction (AJ) mRNA, read-out: HTT AJ AC50
Procedure, shortened: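 A673 or K562 cells were treated for 24 h at 37 °C with an 11-point 3-fold compound dilution series (top final concentration 10 uM, DMSO ≤0.25%). After lysis, one-step TaqMan RT-qPCR quantified junction transcripts, normalized to PPIA for A673 or to GAPDH/GUSB for K562.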

[3] = system: K562 (human chronic myelogenous leukemia) cells; assay: Cell Titer Glo 2.0 cell viability assay; type: cell-based; details: Homo sapiens, K562, 72 h, K562 cells, 72 hours, Cell Titer Glo 2.0; read-out: K562 GI50
[4] = HiBiT K562 cell line, read-out: Effect on protein abundance, MYB (IC50 category)
[5] = decrease in HTT canonical junction (CJ) mRNA, RT-qPCR, read-out: HTT CJ IC50
[6] = canonical junction qPCR panel, Table 5, read-out: HTT (decrease in CJ mRNA levels, IC50)
[7] = Table 5 panel, canonical junction qPCR, compound concentration having 50% response in CJ decrease, read-out: HTT IC50 (decrease in CJ mRNA levels)
[8] = HiBiT lytic detection, modified K562 cells, read-out: Effect on protein abundance, MYB (IC50)

Compound: Cc1c(O)c(-c2ncc3c(=O)n([C@H]4CCN[C@@H](C)C4)ccc3n2)cc2cn(C)nc12 [Compound 1441, 2-(6-hydroxy-2,7-dimethyl-indazol-5-yl)-6-(2-methyl-4-piperidyl)pyrido[4,3-d]pyrimidin-5-one]
- IC50 [1, 4]: < 0.1 µM
- IC50 [2, 5]: 0.1 to 1 µM
- AC50 ([2]; RT-qPCR): 0.1 to 1 µM
- IC50 [2, 6]: 0.1 to 1 µM
- GI50 [3]: < 0.1 µM

Compound: COc1c(-c2ccc3c(=O)n(C4CCNCC4)ccc3n2)cc2cn(C)nc2c1C [Compound 1243]
- IC50 [1, 4]: > 10 µM
- IC50 [2, 5]: > 10 µM
- AC50 ([2]; RT-qPCR): > 10 µM
- IC50 [2, 6]: > 10 µM
- GI50 [3]: > 10 µM

Compound: Cc1c(O)c(-c2ncc3c(=O)n([C@@H]4C[C@H]5C[C@@H]4CN5)ccc3n2)cc2cn(C)nc12 [Compound 1445, 6-[(1R,4R,5R)-2-azabicyclo[2.2.1]heptan-5-yl]-2(6-hydroxy-2,7-dimethyl-indazol-5-yl)pyrido[4,3-d]pyrimidin-5-one]
- IC50 [1, 4]: 1 to 10 µM
- IC50 [2, 5]: > 10 µM
- AC50 ([2]; RT-qPCR): > 10 µM
- IC50 [2, 6]: > 10 µM
- GI50 [3]: 1 to 10 µM

Compound: Cc1c(O)c(-c2ncc3c(=O)n([C@@H]4C[C@H]5C[C@@H]4CN5)ccc3n2)cc2cn(C)nc12 (stereo in doubt) [Compound 1446, 6-[(1R,4R,5R)-2-azabicyclo[2.2.1]heptan-5-yl]-2-(6-hydroxy-2,7-dimethyl-indazol-5-yl)pyrido[4,3-d]pyrimidin-5-one]
- IC50 [1, 4]: 1 to 10 µM
- IC50 [2, 5]: > 10 µM
- AC50 ([2]; RT-qPCR): > 10 µM
- IC50 [2, 6]: > 10 µM
- GI50 [3]: 0.1 to 1 µM

Compound: CN1CCC(Nc2ccc3c(=O)n(-c4ccc5cn(C)nc5c4)cnc3c2)CC1 [Compound 203]
- IC50 [1, 4]: > 10 µM
- IC50 [2, 5]: > 10 µM
- AC50 ([2]; RT-qPCR): > 10 µM
- IC50 [2, 7]: > 10 µM
- GI50 [3]: > 10 µM

Compound: Cc1c(O)c(-c2ncc3c(=O)n(N4CCNCC4)ccc3n2)cc2cn(C)nc12 [Compound 1303]
- IC50 [1, 4]: 0.1 to 1 µM
- IC50 [2, 5]: 0.1 to 1 µM
- AC50 ([2]; RT-qPCR): 0.1 to 1 µM
- IC50 [2, 6]: 0.1 to 1 µM
- GI50 [3]: 0.1 to 1 µM

Compound: Cc1cn2cc(-c3ccc4c(=O)n(C5CCNCC5)ccc4n3)c(O)cc2n1 [Compound 1240]
- IC50 [1, 4]: > 10 µM
- IC50 [2, 5]: > 10 µM
- AC50 ([2]; RT-qPCR): > 10 µM
- IC50 [2, 6]: > 10 µM
- GI50 [3]: 1 to 10 µM

Compound: Cc1cc(-c2cc3ccn(C4CCNCC4)c(=O)c3cn2)cc2cn(C)nc12 [Compound 1204, 6-(2,7-dimethyl-2H-indazol-5-yl)-2-(piperidin-4-yl)-2,7-naphthyridin-1(2H)-one]
- IC50 [1, 4]: 0.1 to 1 µM
- IC50 [2, 5]: 0.1 to 1 µM
- AC50 ([2]; RT-qPCR): 0.1 to 1 µM
- IC50 [2, 7]: 0.1 to 1 µM
- GI50 [3]: 0.1 to 1 µM

Compound: Cc1c(O)c(-c2ncc3c(=O)n(C4CNC4)ccc3n2)cc2cn(C)nc12 [Compound 1305, 6-(azetidin-3-yl)-2-(6-hydroxy-2,7-dimethyl-indazol-5-yl)pyrido[4,3-d]pyrimidin-5-one]
- IC50 [1, 4]: 0.1 to 1 µM
- IC50 [2, 5]: > 10 µM
- AC50 ([2]; RT-qPCR): > 10 µM
- IC50 [2, 6]: > 10 µM
- GI50 [3]: 1 to 10 µM

Compound: Cc1cn2cc(-c3ccc4c(=O)n(C5CCNC5)ccc4n3)c(O)c(C)c2n1 (centres unmarked) [Compound 1302]
- IC50 [1, 4]: > 10 µM
- IC50 [2, 5]: > 10 µM
- AC50 ([2]; RT-qPCR): > 10 µM
- IC50 [2, 6]: > 10 µM
- GI50 [3]: > 10 µM

Compound: CN1CCC(n2ncc3nc(-c4cc5cn(C)nc5cc4O)ccc3c2=O)CC1 [Compound 1307]
- IC50 [1, 8]: 1 to 10 µM
- IC50 [2, 5]: 1 to 10 µM
- AC50 ([2]; RT-qPCR): 1 to 10 µM
- IC50 [2, 6]: 1 to 10 µM
- GI50 [3]: 1 to 10 µM

Compound: Cc1c(O)c(-c2ncc3c(=O)n([C@@H]4CC5CC4CN5)ccc3n2)cc2cn(C)nc12 (stereo in doubt) [Compound 1443, 6-[(1R,4R,5R)-2-azabicyclo[2.2.1]heptan-5-yl]-2-(6-hydroxy-2,7-dimethyl-indazol-5-yl)pyrido[4,3-d]pyrimidin-5-one]
- IC50 [1, 4]: 0.1 to 1 µM
- IC50 [2, 5]: 1 to 10 µM
- AC50 ([2]; RT-qPCR): 1 to 10 µM
- IC50 [2, 6]: 1 to 10 µM
- GI50 [3]: 0.1 to 1 µM

Compound: Cc1cn2nc(-c3ccc4c(=O)n(C5CCNCC5)ncc4n3)cc(C)c2n1 [Compound 1247]
- IC50 [1, 8]: < 0.1 µM
- IC50 [2, 5]: < 0.1 µM
- AC50 ([2]; RT-qPCR): < 0.1 µM
- IC50 [2, 6]: < 0.1 µM
- GI50 [3]: 0.1 to 1 µM

Compound: Cc1c(O)c(-c2ncc3c(=O)n(C4C[C@H](C)N[C@@H](C)C4)ccc3n2)cc2cn(C)nc12 (stereo partly drawn) [Compound 1455, 6-[(2S,6S)-2,6-dimethyl-4-piperidyl]-2-(6-hydroxy-2,7-dimethyl-indazol-5-yl)pyrido[4,3-d]pyrimidin-5-one]
- IC50 [1, 4]: < 0.1 µM
- IC50 [2, 5]: 0.1 to 1 µM
- AC50 ([2]; RT-qPCR): 0.1 to 1 µM
- IC50 [2, 6]: 0.1 to 1 µM
- GI50 [3]: < 0.1 µM

Compound: Cc1cn2cc(-c3ccc4c(=O)n(C5CCNCC5)ccc4n3)nc(C)c2n1 [Compound 1238, 2-(2,8-dimethylimidazo[1,2-a]pyrazin-6-yl)-6-(piperidin-4-yl)-1,6-naphthyridin-5(6H)-one]
- IC50 [1, 4]: > 10 µM
- IC50 [2, 5]: > 10 µM
- AC50 ([2]; RT-qPCR): > 10 µM
- IC50 [2, 6]: > 10 µM
- GI50 [3]: > 10 µM

Compound: CCN1CCC(n2ncc3nc(-c4cc5cn(C)nc5cc4O)ccc3c2=O)CC1 [Compound 1310]
- IC50 [1, 8]: 1 to 10 µM
- IC50 [2, 5]: 1 to 10 µM
- AC50 ([2]; RT-qPCR): 0.1 to 1 µM
- IC50 [2, 6]: 0.1 to 1 µM
- GI50 [3]: 0.1 to 1 µM

Compound: Cc1cn2cc(-c3ncc4c(=O)n([C@@H]5CCNC5)ccc4n3)cc(F)c2n1 [Compound 1228]
- IC50 [1, 4]: 0.1 to 1 µM
- IC50 [2, 5]: > 10 µM
- AC50 ([2]; RT-qPCR): > 10 µM
- IC50 [2, 7]: > 10 µM
- GI50 [3]: 1 to 10 µM

Compound: Cc1cn2nc(-c3ccc4c(=O)n(C5CCN(C)CC5)ncc4n3)cc(C)c2n1 [Compound 1311]
- IC50 [1, 8]: 0.1 to 1 µM
- IC50 [2, 5]: 0.1 to 1 µM
- AC50 ([2]; RT-qPCR): 0.1 to 1 µM
- IC50 [2, 6]: 0.1 to 1 µM
- GI50 [3]: 0.1 to 1 µM

Compound: Cc1cn2cc(-c3ccc4c(=O)n(C5CCNC5)ccc4n3)cc(F)c2n1 (centres unmarked) [Compound 1299]
- IC50 [1, 4]: 1 to 10 µM
- IC50 [2, 5]: > 10 µM
- AC50 ([2]; RT-qPCR): > 10 µM
- IC50 [2, 6]: > 10 µM
- GI50 [3]: 1 to 10 µM

Compound: Cc1cn2cc(-c3cc4ccn(C5CCNC5)c(=O)c4cn3)cc(C#N)c2n1 (centres unmarked) [Compound 1214]
- IC50 [1, 4]: 1 to 10 µM
- IC50 [2, 5]: > 10 µM
- AC50 ([2]; RT-qPCR): > 10 µM
- IC50 [2, 7]: > 10 µM
- GI50 [3]: 1 to 10 µM

Compound: Cn1cc2cc(-c3ncc4c(=O)n(C5CCNCC5)ccc4n3)cc(F)c2n1 [Compound 1212, 2-(7-fluoro-2-methyl-2H-indazol-5-yl)-6-(piperidin-4-yl)pyrido[4,3-d]pyrimidin-5(6H)-one]
- IC50 [1, 4]: < 0.1 µM
- IC50 [2, 5]: 0.1 to 1 µM
- AC50 ([2]; RT-qPCR): 0.1 to 1 µM
- IC50 [2, 7]: 0.1 to 1 µM
- GI50 [3]: 0.1 to 1 µM

Compound: Cc1cn2cc(-c3ncc4c(=O)n(C5CCNC5)ccc4n3)cc(C#N)c2n1 (centres unmarked) [Compound 1221]
- IC50 [1, 4]: 0.1 to 1 µM
- IC50 [2, 5]: 0.1 to 1 µM
- AC50 ([2]; RT-qPCR): 0.1 to 1 µM
- IC50 [2, 7]: 0.1 to 1 µM
- GI50 [3]: 0.1 to 1 µM

Compound: Cc1c(O)c(-c2ncc3c(=O)n(C4CCNC4)ccc3n2)cc2cn(C)nc12 (centres unmarked) [Compound 1222]
- IC50 [1, 4]: < 0.1 µM
- IC50 [2, 5]: > 10 µM
- AC50 ([2]; RT-qPCR): 1 to 10 µM
- IC50 [2, 7]: 1 to 10 µM
- GI50 [3]: 1 to 10 µM

Compound: Cc1cn2nc(-c3ccc4c(=O)n([C@H]5CCNC5)ccc4n3)cc(C)c2n1 [Compound 1437, 2-(2,8-dimethylimidazo[1,2-b]pyridazin-6-yl)-6-[(3S)-pyrrolidin-3-yl]-1,6-aphthyridin-5-one]
- IC50 [1, 4]: 0.1 to 1 µM
- IC50 [2, 5]: 1 to 10 µM
- AC50 ([2]; RT-qPCR): 1 to 10 µM
- IC50 [2, 6]: 1 to 10 µM
- GI50 [3]: 1 to 10 µM

Compound: Cn1cc2cc(-c3ccc4c(=O)n(C5CCNCC5)cnc4c3)ccc2n1 [Compound 182]
- IC50 [1, 4]: 0.1 to 1 µM
- IC50 [2, 5]: 1 to 10 µM
- AC50 ([2]; RT-qPCR): 1 to 10 µM
- IC50 [2, 7]: 1 to 10 µM
- GI50 [3]: 0.1 to 1 µM
